Data set [1] can be described thus: Comparative example 26: highly polar photocatalysts in TPU films, 24 h immersion, film absorption before/after leaching. Particulars: 30 min impregnation, 20h airing, immersion in distilled water 24h (procedure A), film absorption maximum before/after. The format is physicochemical. On the procedure:
Es wurden TPU Folien eingesetzt und mit Imprägnierlösungen enthaltend die folgenden Farbstoffe behandelt. Nach 30 min Einwirkzeit wurden homogen gefärbte Folien erhalten.
Die Ablüftzeit nach Behandlung betrug 20h.
Anschließend wurde ein Belastungstest Immersion mit destilliertem Wasser über 24h durchgeführt (siehe oben beschriebenes Verfahren A) ). Die Folien wurden durch Absorptionsspektroskopie direkt vermessen und die Maximum der Absorption vor/nach Auswaschen verglichen. Es ergaben sich folgende relative Werte, die auf einen starken Austrag der Photokatalysatoren schließen lassen. Die Ergebnisse sind in der Tabelle 63 dargestellt. Tabelle 63: Einbindung von Photokatalysatoren in Kunsttofffolien

The nature of data set [2]: Two-component system (kit of parts): impregnation of TPU films, visual colouring and resistance to rubbing/washing (Beispiel 6a/6b). The format is physicochemical. Particulars: TPU Folien; for Abreiben / Auswaschen der Färbung: feuchter Schwamm, Wasser. From the text:
Um eine Mehrkomponenten-System bereitzustellen, bei dem vorzugsweise flüchtigere Hilfskomponenten, die gegebenenfalls regelmäßiger im Prozess ergänzt werden müssen, in einer separaten Komponente bereitgestellt werden können, wurde zunächst folgendes 2K-System getestet.
Grundkomponente (A): Eine Mischung aus 40,0% w/w Aceton, 30,0% w/w Isopropanol und […] w/w Wasser wurden homogen vermengt. Die Mischung war dicht verschlossen > 12 Monate bei Raumtemperatur lagerbar.
Zusatzkomponente (B): Eine Mischung aus 3,0% w/w Phenoxyethanol, 3,0% w/w EDTA und 0,1 bis 2,0 % Photokatalysator in Wasser wurden homogen verrührt. Die Mischung war dicht verschlossen in dunklen Flaschen > 6 Monate bei Raumtemperatur lagerbar.
Beide Lösungen wurden vor dem Prozess zu gleichen Teilen gemischt, gefolgt von einer 1:5 Verdünnung mit Wasser. Nach guter Durchmischung war die Lösung gebrauchsfertig.
Bei F-64a und F-73 war eine schwache Gelb- bzw.
Grundkomponente (A) enthielt eine Mischung aus 30,0% w/w Dimethylsuccinat, 33,0% w/w 1,2-Propandiol, 12,0% w/w Tween 20 und 25,0 % Wasser.
Zusatzkomponente (B) enthielt eine Mischung aus 2,0 Gew.-% Phenoxyethanol, 2,0 Gew.-% EDTA und 0,1 Gew.-% bis 1,6 Gew.-% Photokatalysator, jeweils bezogen auf das Gesamtgewicht der Zusatzkomponente (B), wobei die entsprechenden Bestandteile in Wasser gelöst wurden und anschließend homogen verrührt wurden.
Die Komponenten wurden vor Gebrauch im Verhältnis A zu B 2:1 gemischt, gefolgt von einer 1:1 Verdünnung mit Wasser. Nach guter Durchmischung war die Lösung gebrauchsfertig.

Data set [3] can be described thus: Incorporation of photocatalysts into TPU films versus process time, absorption spectroscopy against blank film (Beispiele 7a-9b). As to conditions: TPU Folie, Rezeptur 1; Beispiel 8a, Tabelle 44. The format is physicochemical. On the procedure:
Im nächsten Schritt wurde die Verwendbarkeit der verschiedene Photokatalysatorklassen, ausgewählt aus Phenalen-1-on-Derivaten, Curcumin-Derivaten und Porphycen-Derivaten, mit unterschiedlichen Eigenschaften - von neutral unpolar bis ionisch polar - auf Ihre Verwendbarkeit und Wirkung im Verfahren untersucht.
Zur Beurteilung der optimalen Prozesszeit bei Einsatz der Photokatalysatoren, wurden TPU Folienstücke nach Beschreibung in Beispiel 4 zu je 1, 2, 5 und 10 min in den Imprägnierlösungen behandelt, gegebenenfalls auch 30 und 60 min bei undeutlichen Ergebnissen.
Als Basisformulierung wurde Rezeptur 1 nach Beispiel 2 verwendet.
Nach der angegebenen Prozesszeit wurden die Folie entnommen, mit Wasser gewaschen und für 1h bei 40°C getrocknet/abgelüftet.
Die Folien wurden durch Absorptionsspektroskopie gegen ein Blank-Folienstück direkt vermessen, beim Maximum der Absorption des Photokatalysators. Dabei ergaben sich in Abhängigkeit der Prozesszeit folgende Werte, die in den Tabellen 40 bis

Data set [4] is described as follows: Comparative examples 23-25: impregnation of unsuitable plastics or with a fluorescent dye, visual evaluation. Particulars: 0,2 mm starke Polycarbonatfolien; 60 min Einwirkzeit. The format is physicochemical. On the procedure:
Die Farbstoffkonzentration in der Imprägnierlösung betrug jeweils 1 mM bei Phenalen-1-on- und Curcuminderivaten, 0,1 mM bei Prophycenderivaten.
Es wurden 0,2 mm starke Polycarbonatfolien eingesetzt und mit Imprägnierlösungen enthaltend die Photokatalysatoren F-24b, F-64a oder F-73 behandelt.
Es wurden TPU Folien eingesetzt und mit einer Imprägnierlösung enthaltend den Farbstoff 2-Chloro-6-(3-hydroxypropylamino)-1-phenalenon (CAS 113722-81-9) behandelt.

The next data set has as its system S.aureus ATCC 6538. The data set can be described thus: Antibacterial activity of impregnated films, modified ISO 22196 with illumination (Beispiele 11-16, 25). It counts as cell-based. Particulars: Beispiel 14; TPU film; Rezeptur 1 (nach Beispiel 1); 1 mM photocatalyst in impregnation solution; light 20mW/cm2 10min.

In the case of `O=C1C=Cc2cccc3cccc1c23` [Phenalen-1-on (Verb.Bsp. 48)], the “Verlust durch Auswaschen” value in data set [1] is more than 50%.
With `NCCOc1ccc(/C=C/C(=O)CC(=O)/C=C/c2ccc(OCCN)cc2)cc1` [F-64a], the “Imprägnierung / Färbung der Folie” value in data set [2] (2K-System Beispiel 6a (Aceton/Isopropanol)) and in data set [2] (2K-System Beispiel 6b (Dimethylsuccinat/1,2-Propandiol/Tween 20)) was “schwache Gelb- bzw. Blaufärbung der Folie” throughout. Moreover, the “Abreiben / Auswaschen der Färbung” value in data set [2] (2K-System Beispiel 6a) and in data set [2] (2K-System Beispiel 6b) was “weder mit einem feuchten Schwamm abreiben noch mit Wasser auswaschen ließ” in each case. Moreover, the “Abs. 10 min” value in data set [3] was 0,55. In addition, the Verfärbung result in data set [4] is given as “keine Verfärbung”. Moreover, in the data set with S.aureus ATCC 6538, the “Log10 Reduktion Hauptprobe” value was 2,6 ± 1,7 log10.
For `Cl.Cl.Cl.Cl.Cl.Cl.NCCOc1cc(/C=C/C(=O)CC(=O)/C=C/c2cc(OCCN)c(OCCN)c(OCCN)c2)cc(OCCN)c1OCCN` [SACUR-05], in data set [1], the “Verlust durch Auswaschen” value is given as more than 70%.
The same measure, in the same setting: to “2,7,12-Tris(pyridinio-p-tolyl)-17-(p-(methoxymethyl)phenyl) porphycen bromid” belongs more than 66%.

Source of the values: patent EP4458804A1, “METHOD FOR PRODUCING AN OBJECT, PHENALEN-1-ONE COMPOUND AND USE THEREOF” (TriOptoTec GmbH, priority 2023, dated 2024).
